Data set [1] is filed under the species Homo sapiens. Kind of data set: Liver toxicity in human assessed as induction of drug-induced liver injury by measuring severity class index.
The species named for data set [2] is Homo sapiens. Briefly: Liver toxicity in human assessed as induction of drug-induced liver injury by measuring verified drug-induced liver injury concern status.

Non-standard residues stand in square brackets, D forms with d. Residues, ends and D or L forms follow the SMILES beside them. dPhe(4-Cl) = N[C@H](Cc1ccc(Cl)cc1)C(=O)O; d2Nal = N[C@H](Cc1ccc2ccccc2c1)C(=O)O; dCit = NC(=O)NCCC[C@@H](N)C(=O)O; d3Pal = N[C@H](Cc1cccnc1)C(=O)O

Experimental findings from ChEMBL document CHEMBL4028802, “DILIrank: the largest reference drug list ranked by the risk for developing drug-induced liver injury in humans” (Drug Discov Today, 2016) are described below.
For DILI severity class in this document: key of the grades not given here.

Turning to `COc1ccc(Cl)cc1C(=O)NCCc1ccc(S(=O)(=O)NC(=O)NC2CCCCC2)cc1` [GLYBURIDE], the DILI_severity_class in data set [1] amounted to 3. Besides, the DILI_Concern entry in data set [2] is reported as “Less-Dili-Concern”.
Taken in the same sequence, the figures for `CC(C)CN(C[C@@H](O)[C@H](Cc1ccccc1)NC(=O)O[C@H]1CCOC1)S(=O)(=O)c1ccc(N)cc1` were 3 and “Ambiguous-Dili-Concern”.
As for `O=C(c1ccc(OCCN2CCCCC2)cc1)c1c(-c2ccc(O)cc2)sc2cc(O)ccc12` [RALOXIFENE], the DILI_severity_class in data set [1] is reported as 0. In data set [2], the DILI_Concern result is recorded as “No-Dili-Concern”.
Taken in the same sequence, the figures for `NCCCC(O)(P(=O)(O)O)P(=O)(O)O` [ALENDRONIC ACID] were 0 and “Less-Dili-Concern”.
The corresponding values for `OCC(S)CS` (stereo not given) [DIMERCAPROL] are 0 and “No-Dili-Concern”.
The corresponding values for `COC(=O)C1=C(C)NC(C)=C(C(=O)OC)C1c1ccccc1[N+](=O)[O-]` [NIFEDIPINE] are 3 and “Less-Dili-Concern”.
`CCCC(C)(COC(N)=O)COC(N)=O` [MEPROBAMATE]: the DILI_severity_class in data set [1] is listed as 0. In addition, the DILI_Concern result in data set [2] is on record as “No-Dili-Concern”.
The corresponding values for `CC(C)(CO)[C@@H](O)C(=O)NCCCO` [DEXPANTHENOL] are 0 and “No-Dili-Concern”.
Taken in the same sequence, the figures for `CC(=O)N[C@H](Cc1ccc2ccccc2c1)C(=O)N[C@H](Cc1ccc(Cl)cc1)C(=O)N[C@H](Cc1cccnc1)C(=O)N[C@@H](CO)C(=O)N[C@@H](Cc1ccc(O)cc1)C(=O)N[C@H](CCCNC(N)=O)C(=O)N[C@@H](CC(C)C)C(=O)N[C@@H](CCCNC(=N)N)C(=O)N1CCC[C@H]1C(=O)N[C@H](C)C(N)=O` [CETRORELIX] (Ac-[d2Nal][dPhe(4-Cl)][d3Pal]SY[dCit]LRP[dA]-NH2) were 3 and “Ambiguous-Dili-Concern”.
Taken in the same sequence, the figures for `CC1OC2(CS1)CN1CCC2CC1` (stereo not given) [CEVIMELINE] were 3 and “Ambiguous-Dili-Concern”.
Take `Cn1c(=O)c2[nH]cnc2n(C)c1=O.Cn1c(=O)c2[nH]cnc2n(C)c1=O.NCCN` [AMINOPHYLLINE]: the DILI_severity_class in data set [1] is on record as 0. For the same molecule, the DILI_Concern result in data set [2] is reported as “No-Dili-Concern”.
Taken in the same sequence, the figures for `CC(C)NCC(O)COc1ccc(CCOCC2CC2)cc1` (stereo not given) [BETAXOLOL] were 3 and “Ambiguous-Dili-Concern”.
In the case of `CC(=O)OCC(CCn1cnc2cnc(N)nc21)COC(C)=O` [FAMCICLOVIR], the DILI_severity_class in data set [1] was determined as 3. The DILI_Concern entry in data set [2] is given as “Ambiguous-Dili-Concern”.
The corresponding values for `CCN(CC)CCOc1ccc(C(=C(Cl)c2ccccc2)c2ccccc2)cc1` [CLOMIPHENE] are 3 and “Less-Dili-Concern”.
As to `O=c1n(CCCN2CCN(c3cccc(Cl)c3)CC2)nc2ccccn12` [TRAZODONE], the DILI_severity_class in data set [1] is reported as 5. The DILI_Concern result in data set [2] was “Less-Dili-Concern”.
Taken in the same sequence, the figures for `O=C(O)c1cc(/N=N/c2ccc(S(=O)(=O)Nc3ccccn3)cc2)ccc1O` [SULFASALAZINE] were 5 and “Most-Dili-Concern”.
Taken in the same sequence, the figures for `COc1cc2c(cc1OC)[C@@H](Cc1cc(OC)c(OC)c(OC)c1)[N+](C)(CCCOC(=O)CC/C=C/CCC(=O)OCCC[N+]1(C)CCc3cc(OC)c(OC)cc3[C@H]1Cc1cc(OC)c(OC)c(OC)c1)CC2` (stereo not given in full) were 0 and “No-Dili-Concern”.
Taken in the same sequence, the figures for `CN(C)[C@@H]1C(O)=C(C(N)=O)C(=O)[C@@]2(O)C(O)=C3C(=O)c4c(O)cccc4[C@@](C)(O)[C@H]3[C@H](O)[C@@H]12` [OXYTETRACYCLINE] were 2 and “Ambiguous-Dili-Concern”.
As to `NC(=O)CC[C@H](N)C(=O)O` [GLUTAMINE], the DILI_severity_class in data set [1] is 3. Further, the DILI_Concern result in data set [2] is on record as “Ambiguous-Dili-Concern”.
Taken in the same sequence, the figures for `CCCC(=O)OCOC(=O)C1=C(C)NC(C)=C(C(=O)OC)C1c1cccc(Cl)c1Cl` (stereo not given) [CLEVIDIPINE] were 0 and “No-Dili-Concern”.
The corresponding values for `CN1[C@@H]2CC[C@H]1C[C@@H](OC(c1ccccc1)c1ccccc1)C2` [BENZTROPINE] are 0 and “No-Dili-Concern”.
`CCN(CC)C(=O)C1(c2ccccc2)CC1CN` (stereo not given): the DILI_severity_class in data set [1] was 7. Also, the DILI_Concern entry in data set [2] is “Most-Dili-Concern”.
The corresponding values for `NC(=O)N1c2ccccc2C=Cc2ccccc21` [CARBAMAZEPINE] are 7 and “Most-Dili-Concern”.
Taken in the same sequence, the figures for `O=C(O)COc1ccc(C(=O)c2cccs2)c(Cl)c1Cl` were 8 and “Most-Dili-Concern”.
Taken in the same sequence, the figures for `Nc1nc(=O)c2c([nH]1)NCC(CNc1ccc(C(=O)N[C@@H](CCC(=O)[O-])C(=O)[O-])cc1)N2C=O.[Ca+2]` (stereo not given in full) [LEUCOVORIN CALCIUM] were 0 and “No-Dili-Concern”.
`CC1(C)S[C@@H]2[C@H](NC(=O)COc3ccccc3)C(=O)N2[C@H]1C(=O)O` [PENICILLIN V]: the DILI_severity_class in data set [1] is recorded as 0. For the same molecule, the DILI_Concern entry in data set [2] is given as “No-Dili-Concern”.
Consider `C[C@@H](O[C@H]1OCCN(Cc2n[nH]c(=O)[nH]2)[C@H]1c1ccc(F)cc1)c1cc(C(F)(F)F)cc(C(F)(F)F)c1` [APREPITANT], for which, in data set [1], the DILI_severity_class was 3. For the same molecule, the DILI_Concern result in data set [2] is given as “Ambiguous-Dili-Concern”.
Taken in the same sequence, the figures for `CS(=O)(=O)OCCCCOS(C)(=O)=O` [BUSULFAN] were 8 and “Most-Dili-Concern”.
For the molecule `CC(=O)Oc1ccccc1C(=O)Nc1ncc([N+](=O)[O-])s1` [NITAZOXANIDE], in data set [1], the DILI_severity_class was 0. The DILI_Concern entry in data set [2] is “No-Dili-Concern”.
As for `COc1cc2c(cc1OC)C(=O)C(CC1CCN(Cc3ccccc3)CC1)C2` (stereo not given) [DONEPEZIL], in data set [1], the DILI_severity_class turned out to be 3. Further, the DILI_Concern entry in data set [2] was “Less-Dili-Concern”.
Taken in the same sequence, the figures for `CCC1(c2ccccc2)C(=O)NCNC1=O` [PRIMIDONE] were 0 and “No-Dili-Concern”.
The corresponding values for `Cc1c(O)cccc1C(=O)N[C@@H](CSc1ccccc1)[C@H](O)CN1C[C@H]2CCCC[C@H]2C[C@H]1C(=O)NC(C)(C)C` are 3 and “Less-Dili-Concern”.
Taken in the same sequence, the figures for `CC(C)c1cccc(C(C)C)c1O` [PROPOFOL] were 3 and “Less-Dili-Concern”.
Turning to `Cc1ccsc1C(=CCCN1CCC[C@@H](C(=O)O)C1)c1sccc1C` [TIAGABINE], in data set [1], the DILI_severity_class turned out to be 3. Besides, the DILI_Concern entry in data set [2] is listed as “Ambiguous-Dili-Concern”.
The corresponding values for `CN(C)CCCN1c2ccccc2Sc2ccc(Cl)cc21` [CHLORPROMAZINE] are 2 and “Less-Dili-Concern”.
The corresponding values for `C[C@H]1[C@H](c2ccccc2)OCCN1C` [PHENDIMETRAZINE] are 0 and “No-Dili-Concern”.
Taken in the same sequence, the figures for `Cc1ccccc1N1C(=O)c2cc(S(N)(=O)=O)c(Cl)cc2NC1C` (stereo not given) [METOLAZONE] were 3 and “Ambiguous-Dili-Concern”.
Regarding `O=C(O)CCCc1ccc(N(CCCl)CCCl)cc1` [CHLORAMBUCIL], the DILI_severity_class in data set [1] amounted to 3. In addition, the DILI_Concern entry in data set [2] was “Less-Dili-Concern”.
The corresponding values for `CC(C)CC(N(C)C)C1(c2ccc(Cl)cc2)CCC1` (stereo not given) [SIBUTRAMINE] are 4 and “Less-Dili-Concern”.
Taken in the same sequence, the figures for `CNC1(C)C2CCC(C2)C1(C)C` (stereo not given) [MECAMYLAMINE] were 0 and “No-Dili-Concern”.
The corresponding values for `CCCc1cc(=O)[nH]c(=S)[nH]1` [PROPYLTHIOURACIL] are 8 and “Most-Dili-Concern”.
Take `CC[C@H]1OC(=O)[C@H](C)[C@@H](O[C@H]2C[C@@](C)(OC)[C@@H](O)[C@H](C)O2)[C@H](C)[C@@H](O[C@@H]2O[C@H](C)C[C@H](N(C)C)[C@H]2O)[C@](C)(OC)C[C@@H](C)C(=O)[C@H](C)[C@@H](O)[C@]1(C)O` [CLARITHROMYCIN]: the DILI_severity_class in data set [1] is 8. The DILI_Concern entry in data set [2] is recorded as “Most-Dili-Concern”.
Taken in the same sequence, the figures for `Cc1onc(-c2ccccc2)c1C(=O)N[C@@H]1C(=O)N2[C@@H]1SC(C)(C)[C@@H]2C(=O)O` [OXACILLIN] were 3 and “Less-Dili-Concern”.
The corresponding values for `CN1Cc2c(N)cccc2C(c2ccccc2)C1` (stereo not given) [NOMIFENSINE] are 8 and “Most-Dili-Concern”.
For `CC[C@H](C)C[C@H](C)CCCCCCCCC(=O)N[C@H]1C[C@@H](O)[C@@H](NCCN)NC(=O)[C@@H]2[C@@H](O)CCN2C(=O)[C@H]([C@H](O)CCN)NC(=O)[C@H]([C@H](O)[C@@H](O)c2ccc(O)cc2)NC(=O)[C@@H]2C[C@@H](O)CN2C(=O)[C@H]([C@@H](C)O)NC1=O` [CASPOFUNGIN], the DILI_severity_class in data set [1] was 7. Also, the DILI_Concern entry in data set [2] is reported as “Ambiguous-Dili-Concern”.
As to `Nc1ccn(C[C@@H](CO)OCP(=O)(O)O)c(=O)n1.O.O` [CIDOFOVIR], in data set [1], the DILI_severity_class was 5. In addition, the DILI_Concern result in data set [2] is “Ambiguous-Dili-Concern”.
Consider `CC(C)[C@H](N)C(=O)OCC(CO)OCn1cnc2c(=O)nc(N)[nH]c21` (stereo not given in full) [VALGANCICLOVIR], for which the DILI_severity_class in data set [1] was 3. Moreover, the DILI_Concern result in data set [2] is on record as “Ambiguous-Dili-Concern”.
Taken in the same sequence, the figures for `O=C1c2c(O)ccc(O)c2C(=O)c2c(NCCNCCO)ccc(NCCNCCO)c21` [MITOXANTRONE] were 3 and “Less-Dili-Concern”.
Taken in the same sequence, the figures for `C=C(CC)C(=O)c1ccc(OCC(=O)O)c(Cl)c1Cl` [ETHACRYNIC ACID] were 5 and “Ambiguous-Dili-Concern”.
As to `CC(C)CN(C[C@@H](O)[C@H](Cc1ccccc1)NC(=O)O[C@H]1CO[C@H]2OCC[C@H]21)S(=O)(=O)c1ccc(N)cc1`, the DILI_severity_class in data set [1] is given as 8. The DILI_Concern result in data set [2] was “Most-Dili-Concern”.
